Results published in patent US6545127B1, “Catalytically active recombinant memapsin and methods of use thereof” (Oklahoma Medical Research Foundation, priority 1999, dated 2003).
Non-standard residues stand in square brackets, D forms with d. Residues, ends and D or L forms follow the SMILES beside them. No end group written: not given here. *: point of attachment. Sta = CC(C)C[C@H](N)[C@@H](O)CC(=O)O; Isovaleryl = CC(C)CC(=O)*

Legend:
[1] = test system: memapsin 2 (M2) cleavage of APP in HeLa cells; assay: APP beta-secretase site cleavage in HeLa cells co-transfected with APP and M2 (pulse-chase, immunoprecipitation, SDS-PAGE); assay type: cell-based, human; settings: HeLa cells co-transfected with APP and M2, inhibitor included in the media
recombinant memapsin 2 [2] = target: T1, recombinant memapsin 2 (Homo sapiens, UniProt P56817); assay: Value; set-up: expressed in E. coli in two different lengths, both without the transmembrane region; 15 N-terminal residues from vector pET11a (T7 protein leader) (N); made in house; host or cells: E. coli BL21 (DE3)
Description: Table printed on a drawing sheet, FIG. 4A
Footnotes: [Mep2] = 0.47 µM / [Fluo. Substrate] = 29.9 µM / Buffer: Na Acetate 0.1 M, 5% DMSO, pH 4.5 at 37°C / Excitation at 350 nm / Emission at 490 nm
The patent's description of the figure: FIG. 4A is a graph of the inhibition of recombinant memapsin 2 by OM99-1.
First copying reader's note: Fit parameter (Ki) of the inhibition curve of memapsin 2 by OM99-1 plotted above the table; no unit is printed for Ki, and the plot's concentration axis is in M.
Where the first naming reader finds the target: description_of_the_figure: FIG. 4A is a graph of the inhibition of recombinant memapsin 2 by OM99-1.
Target sequence in this assay (P56817 46-457): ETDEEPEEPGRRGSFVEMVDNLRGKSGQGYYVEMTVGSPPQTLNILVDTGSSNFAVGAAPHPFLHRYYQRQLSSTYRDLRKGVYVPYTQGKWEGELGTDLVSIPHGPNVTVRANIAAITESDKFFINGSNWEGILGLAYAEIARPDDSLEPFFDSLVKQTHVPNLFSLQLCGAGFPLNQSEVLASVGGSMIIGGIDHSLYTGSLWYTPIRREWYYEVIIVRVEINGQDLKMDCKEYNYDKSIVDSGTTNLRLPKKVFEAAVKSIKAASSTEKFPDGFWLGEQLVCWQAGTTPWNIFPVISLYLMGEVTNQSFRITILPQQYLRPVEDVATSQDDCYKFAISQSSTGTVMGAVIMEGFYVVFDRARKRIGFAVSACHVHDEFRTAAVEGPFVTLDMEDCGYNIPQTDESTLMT

recombinant memapsin 2 [3] = target: T1, recombinant memapsin 2; assay: Inhibition of recombinant memapsin 2, synthetic fluorogenic peptide substrate; assay type: biochemical; settings: recombinant memapsin 2, synthetic fluorogenic peptide substrate (FIG. 4A/4B)
Target sequence in this assay (P56817 46-457 limits assumed): as the sequence (P56817 46-457) above
Description: The substrate used was a synthetic fluorogenic peptide substrate.

M2pd [4] = target: T2, M2pd (Homo sapiens, UniProt P56817); assay: Steady-state kinetics of hydrolysis of peptide substrates by M2pd; assay type: biochemical; settings: peptide substrate hydrolysed by M2pd, pH 4.0
T2 construct: 15 N-terminal residues from vector pET11a (T7 protein leader) (N, cleaved yes); made in house
T2 sequence (P56817 14-419 limits assumed): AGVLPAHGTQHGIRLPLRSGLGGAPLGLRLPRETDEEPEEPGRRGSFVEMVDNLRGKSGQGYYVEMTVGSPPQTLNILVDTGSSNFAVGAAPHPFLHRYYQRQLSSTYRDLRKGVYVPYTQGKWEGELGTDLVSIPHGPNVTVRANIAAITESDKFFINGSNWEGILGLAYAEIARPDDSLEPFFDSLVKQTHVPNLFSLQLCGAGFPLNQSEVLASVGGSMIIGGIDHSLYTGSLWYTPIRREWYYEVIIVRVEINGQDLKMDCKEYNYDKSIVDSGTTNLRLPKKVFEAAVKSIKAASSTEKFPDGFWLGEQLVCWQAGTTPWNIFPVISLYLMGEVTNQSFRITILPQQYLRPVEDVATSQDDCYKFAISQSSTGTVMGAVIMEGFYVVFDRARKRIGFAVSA
Description: Incubation in 0.1M sodium acetate, pH 4.0, for 16 h at 22° C. auto-catalytically converted pro-M2pd to M2pd . For initial hydrolysis tests, two synthetic peptides were separately incubated with pro-M2pd in 0.1M Na acetate, pH 4.0 for different periods ranging from 2 to 18 h. The incubated samples were subjected to LC/MS for the identification of the hydrolytic products. For kinetic studies, the identified HPLC (Beckman System Gold) product peaks were integrated for quantitation. The Km and kcat values for presenilin 1 and Swedish APP peptides (Table 1) were measured by steady-state kinetics. The individual Km and Kcat values for APP peptide could not be measured accurately by standard methods, so its kcat/Km value was measured by competitive hydrolysis of mixed substrates against presenilin 1 peptide (Fersht, A. “Enzyme Structure and Mechanism”, 2nd Ed., W. H. Freeman and Company, New York. (1985)).

M2pd [5] = target: T2, M2pd; assay: Inhibition of M2pd by pepstatin A; assay type: biochemical

In the case of `CO/C1=C\C(C)=C\[C@@H](C)[C@@H](O)[C@@H](C)C/C(C)=C/C=C/[C@H](OC)[C@@H]([C@@H](C)[C@@H](O)[C@H](C)[C@@]2(O)C[C@@H](O)[C@H](C)[C@@H](C(C)C)O2)OC1=O` [Bafilomycin A1], the “production of APP beta N- and beta C-fragments” value [1] is reported as “abolished the production of both APP fragments”.
In the case of `CC(C)C[C@H](NC(=O)[C@H](CC(N)=O)NC(=O)[C@@H](N)C(C)C)[C@@H](O)C[C@@H](C)C(=O)N[C@@H](C)C(=O)N[C@@H](CCC(=O)O)C(=O)N[C@@H](Cc1ccccc1)C(=O)O` [OM99-1, Val-Asn-Leu*Ala-Ala-Glu-Phe] (HELM PEPTIDE1{V.N.[CC(C)C[C@H](N[*:1])[C@@H](O)C[C@@H](C)C(=O)[*:2]].A.E.F}$$$$V2.0), the Ki (recombinant memapsin 2 [2]) is reported as 68.4 nM and the Ki (recombinant memapsin 2 [3]) is reported as 30 nM.
With “SVNM/AEGD (SVNMAEGD) [presenilin 1, substrate peptide derived from the processing site of presenilin 1]” the Km (M2pd [4]) was 15.2 mM and the kcat (M2pd [4]) was 0.67 s⁻¹.
Work on “SEVNLDAEFR [Swedish APP peptide, SEVNL/DAEFR]” yielded a Km (M2pd [4]) of 1 mM.
Compound `CC(C)CC(=O)N[C@H](C(=O)N[C@H](C(=O)N[C@@H](CC(C)C)[C@@H](O)CC(=O)N[C@@H](C)C(=O)N[C@@H](CC(C)C)[C@@H](O)CC(=O)O)C(C)C)C(C)C` [Pepstatin A] (Isovaleryl-VV[Sta]A[Sta]-OH) has an IC50 (M2pd [5]) of roughly 300000 nM.
